Columns and labels:
[1] = target: T1, human GCN2 full-length protein (Homo sapiens, UniProt Q9P2K8); assay: GCN2 enzyme inhibition assay (LanthaScreen TR-FRET); type: biochemical; details: GCN2 enzyme inhibitory activity at compound concentration of 3 μM; Table 3-1; read-out: inhibitory rate
T1 construct: purchased Carna Biosciences, Inc
Summary of the method: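 Full-length human GCN2 was preincubated with compound for 1 hr at room temperature, then reacted for 1 hr with substrate and ATP added from a 570 μM ATP / 390 nM substrate solution (stock concentrations). Phosphorylation was detected by TR-FRET with a terbium-labelled anti-eIF2alpha antibody after 1 hr, with enzyme-free wells as control.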

[2] = test system: osteosarcoma cell line U-2-OS; assay: In vitro cell proliferation inhibition assay (CellTiter-Glo, low amino acid media); type: cell-based; details: Homo sapiens, U2OS, 72 h, cell proliferation inhibitory rate, McCoy's 5A low amino acid media, Table 4-1
Summary of the method: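 Cells seeded at 1000 per well in McCoy's 5A low amino acid medium (25% amino acid content), then exposed to compound for 72 h at 37° C., 5% CO2. ATP measured by CellTiter-Glo luminescence. Inhibition (%) at 100 nM calculated relative to pre-treatment and untreated control wells.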

[3] = test system: ATF4 expression in human acute lymphoblastic leukemia cell line CCRF-CEM; assay: In vitro ATF4 expression suppression assay (Western blot) in the presence of L-asparaginase; type: cell-based; details: compound concentration 400 nM, L-asparaginase 0.1 U/mL, 4 hr
Experimental: A cell suspension (40 μL) (500000 cells/well) of human acute lymphoblastic leukemia cell line CCRF-CEM obtained from ATCC (American Type Culture Collection) was seeded on a 12 well plate using RPMI1640 medium. The seeded cells were incubated (37° C., 5% CO2) overnight to 24 hr at the longest. L-asparaginase (Sigma-Aldrich Co. LLC.) was dissolved in PBS and treated in each well to a final concentration of 0.1 U/mL. Furthermore, each test compound was dissolved (10 mM) in DMSO, delivered to wells by using TECAN HP D300 (TECAN), and the plate was incubated for 4 hr (37° C., 5% CO2). A well without addition of compound was treated similarly as a control group. […]
Protein extract solution was subjected to protein quantification with BCA Protein Assay Kit (Thermo Scientific), electrophoresed on 7.5-15% SDS-PAGE gel (DRC), and protein in the gel was transferred to PVDF membrane. […] Thereafter, chemiluminescence was performed using ImmunoStar LD (Wako Pure Chemical Industries, Ltd.), and luminescence intensity was measured by LAS-3000 image analyzer (Fuji Film Co., Ltd.). Furthermore, the expression level of ATF4 was digitized by quantifying the luminescence intensity using Multi Gauge Ver. […]

[4] = test system: human acute lymphoblastic leukemia cell line CCRF-CEM; assay: In vitro tumor proliferation inhibitory assay with combined use of asparaginase; type: cell-based; details: compound concentration 100 nM, L-asparaginase 0.1 U/mL, 72 hr, read-out: in vitro cell proliferation inhibitory rate (%)
Experimental: A cell suspension (40 μL) (5000 cells/well) of human acute lymphoblastic leukemia cell line CCRF-CEM obtained from ATCC (American Type Culture Collection) was seeded on a 384 well plate using RPMI1640 medium. The seeded cells were incubated (37° C., 5% CO2) overnight to 24 hr at the longest. L-asparaginase (Sigma-Aldrich Co. LLC.) was dissolved in PBS and treated in each well to a final concentration of 0.1 U/mL. Furthermore, each test compound was dissolved (10 mM) in DMSO, delivered to wells by using TECAN HP D300 (TECAN), and the plate was incubated for 72 hr (37° C., 5% CO2). A well without addition of compound was treated similarly as a control group. […] After incubation for 10 min, cell proliferation inhibitory rate was measured by the amount of ATP which is a cell viability marker.
Luminescence of cells showing ATP amount was measured using ARVO MX (PerkinElmer). Based on the luminescence value of the control group without addition of test compound solution and the treatment group with addition of test compound, the cell proliferation inhibitory rate (%) of the test compound at a compound concentration of 100 nM was calculated by the following formula and the results thereof are shown in Table 7. Inhibitory rate (%)=(1−(luminescence value of treatment group)÷(luminescence value of control group))×100

T1 sequence (Q9P2K8 whole entry): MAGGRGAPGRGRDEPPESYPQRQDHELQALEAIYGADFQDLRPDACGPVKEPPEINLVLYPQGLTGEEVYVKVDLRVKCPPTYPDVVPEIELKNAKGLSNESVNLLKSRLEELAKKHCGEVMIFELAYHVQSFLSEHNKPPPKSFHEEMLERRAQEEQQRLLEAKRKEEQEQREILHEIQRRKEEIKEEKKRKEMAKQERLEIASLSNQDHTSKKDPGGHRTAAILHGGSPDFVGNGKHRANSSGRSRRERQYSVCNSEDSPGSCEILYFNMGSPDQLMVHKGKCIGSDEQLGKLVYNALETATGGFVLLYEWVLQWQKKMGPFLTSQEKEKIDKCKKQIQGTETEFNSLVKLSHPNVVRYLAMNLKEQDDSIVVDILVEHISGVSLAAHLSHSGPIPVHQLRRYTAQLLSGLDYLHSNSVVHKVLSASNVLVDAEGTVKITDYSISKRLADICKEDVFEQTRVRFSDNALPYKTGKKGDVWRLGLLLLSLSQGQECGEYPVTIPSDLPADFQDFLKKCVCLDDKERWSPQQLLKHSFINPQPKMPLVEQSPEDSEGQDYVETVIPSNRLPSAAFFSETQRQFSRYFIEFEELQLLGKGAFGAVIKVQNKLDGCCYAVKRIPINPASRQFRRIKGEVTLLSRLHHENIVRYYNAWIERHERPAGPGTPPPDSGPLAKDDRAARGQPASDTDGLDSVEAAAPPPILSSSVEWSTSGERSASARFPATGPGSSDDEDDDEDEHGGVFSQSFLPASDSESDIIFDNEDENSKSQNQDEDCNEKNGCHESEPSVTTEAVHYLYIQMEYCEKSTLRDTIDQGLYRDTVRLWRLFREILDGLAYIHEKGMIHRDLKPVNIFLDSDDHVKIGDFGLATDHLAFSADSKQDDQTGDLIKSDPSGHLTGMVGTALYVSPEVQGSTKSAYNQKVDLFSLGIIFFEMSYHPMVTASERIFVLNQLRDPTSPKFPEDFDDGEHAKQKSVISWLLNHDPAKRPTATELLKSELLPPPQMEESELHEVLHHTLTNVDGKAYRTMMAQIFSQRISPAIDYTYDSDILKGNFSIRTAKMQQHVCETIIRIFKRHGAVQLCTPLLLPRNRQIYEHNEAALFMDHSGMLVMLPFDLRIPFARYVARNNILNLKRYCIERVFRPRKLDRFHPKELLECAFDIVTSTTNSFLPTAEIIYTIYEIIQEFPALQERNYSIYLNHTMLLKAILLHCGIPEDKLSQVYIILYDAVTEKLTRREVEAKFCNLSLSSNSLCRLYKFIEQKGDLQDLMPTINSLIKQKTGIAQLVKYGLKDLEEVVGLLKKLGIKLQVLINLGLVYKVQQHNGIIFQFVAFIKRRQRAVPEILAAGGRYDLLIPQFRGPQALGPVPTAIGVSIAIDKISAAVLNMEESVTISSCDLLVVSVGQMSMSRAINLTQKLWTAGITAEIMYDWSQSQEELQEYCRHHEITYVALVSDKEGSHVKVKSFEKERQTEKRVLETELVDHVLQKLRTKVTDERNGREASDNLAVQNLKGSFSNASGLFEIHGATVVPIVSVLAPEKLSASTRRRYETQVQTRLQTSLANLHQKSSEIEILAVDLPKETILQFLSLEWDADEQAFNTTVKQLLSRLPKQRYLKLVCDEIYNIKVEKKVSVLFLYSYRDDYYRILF

| Compound | inhibition at 3 µM [1] | inhibition at 0.1 µM [2] | in vitro ATF4 expression inhibition ratio (%) [3] | inhibition at 0.1 µM [4] |
| --- | --- | --- | --- | --- |
| Nc1ncc(C#Cc2c(F)ccc(NS(=O)(=O)c3cc(Cl)cc(CO)c3Cl)c2F)cn1 [Example 4, N-(3-((2-aminopyrimidin-5-yl)ethynyl)-2,4-difluorophenyl)-2,5-dichloro-3-(hydroxymethyl)benzenesulfonamide] | 100% | 90% | 97% | 89% |
| COc1ncc(Cl)cc1S(=O)(=O)Nc1ccc(F)c(C#Cc2cnc(N)nc2)c1F [Example 7, N-(3-((2-aminopyrimidin-5-yl)ethynyl)-2,4-difluorophenyl)-5-chloro-2-methoxypyridine-3-sulfonamide] | 100% | 96% | 97% | 90% |
